# In patent publication US12082907B2, “Systems, methods, and apparatus for multichannel imaging of fluorescent sources in real-time” (Memorial Sloan Kettering Cancer Center, priority 2013, dated 2024):
# Tested on: spontaneous melanoma miniswine model
# Assay: Pre-operative PET-CT SLN mapping in spontaneous melanoma miniswine model
# Format: in vivo, Sinclair miniature swine
# Text: FIG. 6 depicts imaging of metastatic disease in a spontaneous melanoma miniswine model, in accordance with an embodiment of the present disclosure. ^124I-cRGDY-PEG-C dots and combined PET-optical imaging approaches can evaluate SLN mapping in a spontaneous melanoma miniswine model (Misfeldt, Vet. Immunol. Immunopathol. (1994); Oxenhandler, Am. J. Pathol. (1979); Millikan, J. Invest. Dermatol. (1974)) (Sinclair miniature swine, Sinclair Research Center). Image-guided metastatic disease detection, staging, and the assessment of differential tumor burden in SLN/s were evaluated in 4-10 kg miniswine (n=5) in conjunction with correlative histopathology. […]
# FIGS. 7A-7I depict image-guided SLN Mapping in a spontaneous melanoma miniswine model using pre-operative PET imaging, in accordance with an embodiment of the present disclosure. These studies were expanded to include optical imaging using the portable ArteMIS™ fluorescence camera system, along with radiodetection using the gamma probe, for performing real-time assessments of the draining tumor lymphatics and nodal metastases. […] FIG. 7I depicts radioactivity levels of the primary tumor, SLN (in vivo, ex vivo), and a site remote from the primary tumor (i.e., background), using a handheld gamma probe. […]
substance,measurement,setting,value
2-deoxy-2-[^18F]fluoro-D-glucose [^18F-FDG],discrimination of metastatic disease from inflammatory processes,"miniswine with granulomatous inflammatory changes (n=3), PET-CT",failed to detect metastatic disease
same,detection of nodal metastases on PET-CT,"representative miniswine, neck nodes, dynamic imaging over 1 hour",clear absence of nodal metastases
